Data on 15 compounds can be found in PubChem BioAssay (NCI).

Test systems include SN12C renal; LOX IMVI melanoma; SK-MEL-2 melanoma; U251 CNS; NCI-H522 lung; 786-0 renal; OVCAR-3 ovarian; HL-60(TB) leukemia; MDA-MB-231 breast; NCI/ADR-RES ovarian.
Common to all, as to assay: growth of human tumour cells (NCI), 48 h

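Results reflect a 48-hour exposure of cells in 96-well plates to compound at five concentrations. The concentration for 50% growth inhibition is given as GI50. The concentration for full growth arrest is given as TGI.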

For `OC(c1ccccc1Br)(c1ccccc1Br)C(F)(F)F`, the TGI in the assay on SN12C renal turned out to be 38.6 µM; with LOX IMVI melanoma, 40.2 µM; in the assay with SK-MEL-2 melanoma, 35.5 µM; in the assay with U251 CNS it was 34.3 µM; in the assay on NCI-H522 lung, 26.1 µM; in the assay with 786-0 renal, 35.5 µM. The compound further returned a TGI in the assay with OVCAR-3 ovarian of 51.7 µM.

Consider `COC(=O)C(C(=O)C(=O)Nc1c(Cl)cc([N+](=O)[O-])cc1Cl)c1csc(-n2nc(C3=CCCCC3)cc2-c2ccccc2)n1` (stereo unspecified), for which the TGI in the assay on SN12C renal, in the assay on HL-60(TB) leukemia, in the assay on LOX IMVI melanoma, in the assay with SK-MEL-2 melanoma, with U251 CNS and with NCI-H522 lung was above 100 µM each time. Also, the TGI with 786-0 renal and in the assay with OVCAR-3 ovarian was above 100 µM each time.

For `O=C1N[C@@H]2CCCC[C@@H]2C12CCCCC2`, the TGI in the assay on SN12C renal, with HL-60(TB) leukemia, with LOX IMVI melanoma, with U251 CNS, in the assay with 786-0 renal and with OVCAR-3 ovarian was above 100 µM each time.

In the case of `CCOC(=O)C1(C)CCC(C(C(=O)O)C(=O)O)CC1=O` (stereo unspecified), the TGI in the assay on SN12C renal, in the assay on HL-60(TB) leukemia, with LOX IMVI melanoma, in the assay with U251 CNS, in the assay with NCI-H522 lung and in the assay on 786-0 renal was above 100 µM in each case. Besides, in the assay on OVCAR-3 ovarian, the TGI was above 100 µM.

`COc1ccc2ccccc2c1C1=NC(C)(C)CO1`: the TGI in the assay on SN12C renal, in the assay on HL-60(TB) leukemia, in the assay on SK-MEL-2 melanoma, in the assay on U251 CNS, in the assay with NCI-H522 lung and with 786-0 renal was above 100 µM in each case. The compound further registered a TGI with OVCAR-3 ovarian above 100 µM.

As to `CC(=O)[CH-]C(=O)c1ccccc1.[C-]#[O+].[C-]#[O+].[Ir]`, the GI50 in the assay on SN12C renal, in the assay with HL-60(TB) leukemia, with LOX IMVI melanoma, with SK-MEL-2 melanoma, in the assay on U251 CNS and in the assay on 786-0 renal was above 100 µM in each case. The TGI in the assay with SN12C renal, in the assay on HL-60(TB) leukemia, in the assay with LOX IMVI melanoma, in the assay on SK-MEL-2 melanoma, in the assay on U251 CNS and with 786-0 renal was above 100 µM throughout.

With `COc1ccc2c(C(=O)O)cc3ccccc3c2c1OC`, the TGI with SN12C renal is 53.1 µM; in the assay with HL-60(TB) leukemia, above 100 µM; in the assay with LOX IMVI melanoma, 35 µM; in the assay with SK-MEL-2 melanoma, 94.9 µM; with U251 CNS, above 100 µM; with NCI-H522 lung, 26.8 µM. Moreover, the TGI is 31.1 µM with 786-0 renal and 32.7 µM in the assay on OVCAR-3 ovarian.

`COc1ccc(/C=C2\C(=O)N(NC(C)=O)c3ccccc32)cc1`: the TGI in the assay on SN12C renal, with LOX IMVI melanoma, in the assay with SK-MEL-2 melanoma, in the assay with U251 CNS, in the assay with 786-0 renal and in the assay with OVCAR-3 ovarian was above 100 µM in each case.

Regarding `CC(=O)OCC(=O)[C@@]1(O)CC[C@H]2[C@@H]3C[C@H](C)C4=CC(=O)C=C[C@]4(C)[C@@]3(F)[C@@H](O)C[C@@]21C`, the TGI with HL-60(TB) leukemia, in the assay with LOX IMVI melanoma, with SK-MEL-2 melanoma, with U251 CNS, in the assay with NCI-H522 lung and in the assay on 786-0 renal was above 100 µM in each case. The TGI with OVCAR-3 ovarian is above 100 µM.

For `O=C(NCCc1ccccc1)C1C(=O)C(=O)N(CCc2ccccc2)C1=O` (stereo unspecified), the TGI in the assay on SN12C renal, in the assay on HL-60(TB) leukemia, in the assay with LOX IMVI melanoma, with SK-MEL-2 melanoma, with U251 CNS and in the assay on NCI-H522 lung was above 100 µM throughout. The TGI in the assay on 786-0 renal and in the assay with OVCAR-3 ovarian was above 100 µM throughout.

In the case of `c1ccc(C(c2ccccc2)c2ccccn2)cc1`, the TGI with SN12C renal, with LOX IMVI melanoma, with SK-MEL-2 melanoma, with U251 CNS, in the assay with 786-0 renal and with OVCAR-3 ovarian was above 100 µM throughout.

In the case of `O=C(c1ccccc1)[C@H]1Nc2ccc(Cl)cc2[C@H]2CCC[C@@H]12`, the TGI is 92.5 µM with SN12C renal; 19.9 µM in the assay with LOX IMVI melanoma; 49.5 µM in the assay on SK-MEL-2 melanoma; above 100 µM with U251 CNS; 59.9 µM in the assay on NCI-H522 lung; above 100 µM in the assay with 786-0 renal. For the same compound, the TGI with OVCAR-3 ovarian was determined as 68.6 µM.

In the case of `O=C1C2C3C=CC(C2C(=O)N1CO)C1C2C(=O)N(CO)C(=O)C2C31` (stereo unspecified), the TGI in the assay on SN12C renal is above 100 µM; in the assay on LOX IMVI melanoma, above 61.9 µM; in the assay with SK-MEL-2 melanoma, above 100 µM; with U251 CNS, above 100 µM; in the assay with NCI-H522 lung it was above 100 µM; in the assay with 786-0 renal, above 58.6 µM. The TGI with OVCAR-3 ovarian is above 100 µM.

Take `CC(=O)Oc1c(C(=O)[O-])cc(C(C)C)cc1C(C)C.CC(=O)Oc1c(C(=O)[O-])cc(C(C)C)cc1C(C)C.CC(=O)Oc1c(C(=O)[O-])cc(C(C)C)cc1C(C)C.CC(=O)Oc1c(C(=O)[O-])cc(C(C)C)cc1C(C)C.[Cu+2].[Cu+2]`: the GI50 with SN12C renal was 19.8 µM; with HL-60(TB) leukemia, 22.7 µM; in the assay on LOX IMVI melanoma it was 2.74 µM; in the assay on SK-MEL-2 melanoma, 40.8 µM; with U251 CNS, 19.9 µM; in the assay on MDA-MB-231 breast it was 33.9 µM. The GI50 in the assay on NCI-H522 lung is 18.5 µM; in the assay with 786-0 renal, 63.6 µM; in the assay on OVCAR-3 ovarian, 27.3 µM. Further, the TGI with SN12C renal was 65.9 µM; with HL-60(TB) leukemia, 81.9 µM; in the assay with LOX IMVI melanoma it was 25.8 µM; in the assay on SK-MEL-2 melanoma it was above 100 µM; with U251 CNS, 51.5 µM; with MDA-MB-231 breast, above 100 µM. For the same compound, the TGI in the assay with NCI-H522 lung was 33.3 µM; in the assay on 786-0 renal, above 100 µM; in the assay on OVCAR-3 ovarian, 65.9 µM.

Regarding `Cc1ccc(S(=O)(=O)NCCCCC(N)C(=O)O)cc1` (stereo unspecified), the TGI in the assay on NCI/ADR-RES ovarian, with SN12C renal, with U251 CNS, in the assay on MDA-MB-231 breast, in the assay on NCI-H522 lung and in the assay with 786-0 renal was above 100 µM throughout. Besides, the TGI in the assay with OVCAR-3 ovarian was above 100 µM.
